# pIC50: −log10 of the molar value.
# Biological target: T1, Aurora-2 (Homo sapiens, UniProt O14965)
# T1 construct: autophosphorylation of Aurora-2 (residues 125-391)
# T1 sequence (O14965 125-391): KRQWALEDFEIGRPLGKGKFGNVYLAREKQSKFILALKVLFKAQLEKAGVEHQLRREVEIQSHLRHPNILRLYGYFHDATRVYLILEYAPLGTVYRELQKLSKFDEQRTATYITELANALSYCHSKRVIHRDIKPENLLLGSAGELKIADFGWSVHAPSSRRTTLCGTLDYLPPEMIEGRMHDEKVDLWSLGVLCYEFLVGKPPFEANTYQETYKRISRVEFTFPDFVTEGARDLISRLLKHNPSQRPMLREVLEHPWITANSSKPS
# Assay: Aurora-2 Enzymatic Assay (ELISA-based)
# Assay type: biochemical
# Details: phosphorylated Aurora-2 (residues 125-391), Histone H3 Ser-10 phosphorylation, averages of three independent measurements; read-out: Aurora-2 IC50 Enzyme
# Method: In vitro assays were run to measure potency of Aurora-2 kinase inhibition by selected compounds of Formula I.
# Aurora-2 Enzymatic Assay. An ELISA-based enzymatic assay was used to determine the compound potency for Aurora-2. In this assay, phosphorylated Aurora-2 (Pi-Aurora-2) catalyzes the ATP-dependent phosphorylation of Ser-10 of Histone H3. Pi-Aurora-2 was produced by autophosphorylation of Aurora-2 (residues 125-391) by 1 mM ATP in the presence of 10 mM MgCl2. The assay buffer used was 100 mM HEPES, pH 7.5, 1 mM DTT, 0.01% (v/v) Tween-20. Compounds were diluted in assay buffer containing 4% DMSO just prior to the assay. • Procedure. High-binding 96-well ELISA plates (Costar 9018) were coated overnight at 4° C. with 10 μg/ml human Histone H3 (Upstate) in PBS (100 μl/well). The following day, the plates were emptied and blocked with 1% BSA in PBS (150 μl/well) for 1 h at 37° C. At the end of the incubation, plates were washed 3 times with 0.01% Tween-20 in PBS (300 μl/well). 50 μl of compound were dispensed to each well followed by addition of 20 μl 10 mM MgCl2 and 20 μl 50 μM ATP (Sigma). The reaction was initiated by addition of 10 μl 30 nM Pi-Aurora-2. […] The reaction was quenched with 9 μl 50 mM EDTA and the plates were washed 5 times with 0.01% Tween-20 in PBS (300 μl/well). The phospho-histone H3 (Ser10) 6G3 monoclonal antibody (Cell Signaling) was then diluted 2,000-fold with 1% BSA in PBS, and was added to the plates (100 μl/well). Following 1 h incubation at 37° C., the plates were washed as described above. The HRP-conjugated secondary antibody (goat anti-mouse Ig(H+ L)-HRP human absorbed, Southern Biotechnology Associates, Inc.) was diluted 20,000-fold with 1% BSA in PBS and was added to the plates (100 μl/well). The plates were incubated for 1 h at 37° C. and then washed 5 times with 0.01% Tween-20 in PBS (300 μl/well). 100 μl/well TMB, SureBlue Reserve (KPL) were added. After ca. 5-6 min, each well received 100 μl 1 M HCl and the OD450 was measured with a SpectraMax Plus microplate reader (Molecular Devices). Under these conditions, absorbance values for positive and negative controls were ca. 0.1 and 1.7, respectively, and were used to define the 100% and 0% inhibition of the Aurora-2 reaction. The IC50 values reported (Table 1) are the averages of three independent measurements.
row,SMILES,pIC50
1,"C[C@@H](c1ccccc1)n1c(=O)[nH]c2ncc(-c3ccc4[nH]ccc4c3)nc21 [Compound 4, 6-(1H-Indol-5-yl)-1-((S)-(−)-1-phenylethyl)-1,3-dihydroimidazo[4,5-b]pyrazin-2-one]",< 6.00
2,"Cc1noc(C)c1-c1cnc2[nH]c(=O)n([C@@H](C)c3ccccc3)c2n1 [Compound 5, 6-(3,5-Dimethylisoxazol-4-yl)-1-((S)-(−)-1-phenylethyl)-1,3-dihydro-imidazo[4,5-b]pyrazin-2-one]",< 6.00
3,"C[C@@H](c1ccccc1)n1c(=O)[nH]c2ncc(-c3cccc(C#N)c3)nc21 [Compound 6, 3-[2-Oxo-3-((S)-(−)-1-phenylethyl)-2,3-dihydro-1H-imidazo[4,5-b]pyrazin-5-yl]benzonitrile]",< 6.00
4,"C[C@@H](c1ccccc1)n1c(=O)[nH]c2ncc(-c3cc4ccccc4[nH]3)nc21 [Compound 8, 6-(1H-Indol-2-yl)-1-((S)-(−)-1-phenylethyl)-1,3-dihydro-imidazo[4,5-b]pyrazin-2-one]",< 6.00
5,"COc1ccc(-c2cnc3[nH]c(=O)n(Cc4ccccc4)c3n2)cn1 [Compound 11, 1-Benzyl-6-(6-methoxypyridin-3-yl)-1,3-dihydroimidazo[4,5-b]pyrazin-2-one]",< 6.00
6,"COCc1cccc(-c2cnc3[nH]c(=O)n(Cc4ccccc4)c3n2)c1 [Compound 12, 1-Benzyl-6-(3-methoxymethylphenyl)-1,3-dihydroimidazo[4,5-b]pyrazin-2-one]",< 6.00
7,"O=c1[nH]c2ncc(-c3cccs3)nc2n1Cc1ccccc1 [Compound 16, 1-Benzyl-6-thiophen-2-yl-1,3-dihydroimidazo[4,5-b]pyrazin-2-one]",< 6.00
8,"COc1cccc(-c2cnc3[nH]c(=O)n(Cc4ccccc4)c3n2)c1 [Compound 17, 1-Benzyl-6-(3-methoxyphenyl)-1,3-dihydroimidazo[4,5-b]pyrazin-2-one]",< 6.00
9,"O=C(O)c1cccc(-c2cnc3[nH]c(=O)n(Cc4ccccc4)c3n2)c1 [Compound 18, 3-(3-Benzyl-2-oxo-2,3-dihydro-1H-imidazo[4,5-b]pyrazin-5-yl)benzoic acid]",6.00 to 6.30
10,"COc1cc(-c2cnc3[nH]c(=O)n(Cc4ccccn4)c3n2)cc(OC)c1OC [Compound 19, 1-Pyridin-2-ylmethyl-6-(3,4,5-trimethoxyphenyl)-1,3-dihydroimidazo[4,5-b]pyrazin-2-one]",6.00 to 6.30
11,"COc1cc(OC)cc(-c2cnc3[nH]c(=O)n(Cc4ccccc4)c3n2)c1 [Compound 21, 1-Benzyl-6-(3,5-dimethoxyphenyl)-1,3-dihydro-imidazo[4,5-b]pyrazin-2-one]",< 6.00
12,"COc1ccc(-c2cnc3[nH]c(=O)n(Cc4ccccc4)c3n2)cc1C(N)=O [Compound 26, 5-(3-Benzyl-2-oxo-2,3-dihydro-1H-imidazo[4,5-b]pyrazin-5-yl)-2-methoxybenzamide]",< 6.00
13,"COc1cc(-c2cnc3[nH]c(=O)n(Cc4cccc([N+](=O)[O-])c4)c3n2)cc(OC)c1OC [Compound 27, 1-(3-Nitrobenzyl)-6-(3,4,5-trimethoxyphenyl)-1,3-dihydroimidazo[4,5-b]pyrazin-2-one]",< 6.00
14,"COc1cc(-c2cnc3[nH]c(=O)n(Cc4cccc(C)c4)c3n2)cc(OC)c1OC [Compound 30, 1-(3-Methylbenzyl)-6-(3,4,5-trimethoxyphenyl)-1,3-dihydro-imidazo[4,5-b]pyrazin-2-one]",6.00 to 6.30
15,"COc1cc(-c2cnc3[nH]c(=O)n(Cc4cccc(F)c4)c3n2)cc(OC)c1OC [Compound 31, 1-(3-Fluorobenzyl)-6-(3,4,5-trimethoxyphenyl)-10,3-dihydro-imidazo[4,5-b]pyrazin-2-one]",> 6.30

# Results, then the molecule that gave them:
row,pIC50,SMILES
1,> 6.30,"COc1cc(-c2cnc3[nH]c(=O)n([C@@H](C)c4ccccc4)c3n2)cc(OC)c1OC [Compound 1, 1-((S)-(−)-1-Phenylethyl)-6-(3,4,5-trimethoxyphenyl)-1,3-dihydroimidazo[4,5-b]pyrazin-2-one]"
2,< 6.00,"COc1cc(-c2cnc3[nH]c(=O)n([C@H](C)c4ccccc4)c3n2)cc(OC)c1OC [Compound 2, 1-((R)-(+)-1-Phenylethyl)-6-(3,4,5-trimethoxyphenyl)-1,3-dihydro-imidazo[4,5-b]pyrazin-2-one]"
3,> 6.30,"COc1cc(-c2cnc3[nH]c(=O)n(Cc4ccccc4)c3n2)cc(OC)c1OC [Compound 3, 1-Benzyl-6-(3-4,5-trimethoxyphenyl)-1,3-dihydroimidazo[4,5-b]pyrazin-2-one]"
4,6.00 to 6.30,"C[C@@H](c1ccccc1)n1c(=O)[nH]c2ncc(-c3cccc(CO)c3)nc21 [Compound 7, 6-(3-Hydroxymethylphenyl)-1-((S)-(−)-1-phenylethyl)-1,3-dihydro-imidazo[4,5-b]pyrazin-2-one]"
5,< 6.00,"O=c1[nH]c2ncc(-c3cccnc3)nc2n1Cc1ccccc1 [Compound 9, 1-Benzyl-6-pyridin-3-yl-1,3-dihydroimidazo[4,5-b]pyrazin-2-one]"
6,6.00 to 6.30,"COc1ccc(-c2cnc3[nH]c(=O)n(Cc4ccccc4)c3n2)cc1OC [Compound 10, 1-Benzyl-6-(3,4-dimethoxyphenyl)-1,3-dihydroimidazo[4,5-b]pyrazin-2-one]"
7,< 6.00,"CC(=O)c1cccc(-c2cnc3[nH]c(=O)n(Cc4ccccc4)c3n2)c1 [Compound 13, 6-(3-Acetylphenyl)-1-benzyl-1,3-dihydroimidazo[4,5-b]pyrazin-2-one]"
8,< 6.00,"COc1ccc(-c2cnc3[nH]c(=O)n(Cc4ccccc4)c3n2)c(OC)c1 [Compound 14, 1-Benzyl-6-(2,4-dimethoxyphenyl)-1,3-dihydroimidazo[4,5-b]pyrazin-2-one]"
9,< 6.00,"O=c1[nH]c2ncc(-c3ccsc3)nc2n1Cc1ccccc1 [Compound 15, 1-Benzyl-6-thiophen-3-yl-1,3-dihydroimidazo[4,5-b]pyrazin-2-one]"
10,> 6.30,"COc1cc(-c2cnc3[nH]c(=O)n(Cc4cccnc4)c3n2)cc(OC)c1OC [Compound 20, 1-Pyridin-3-yl methyl-6-(3,4,5-trimethoxyphenyl)-1,3-dihydroimidazo-[4,5-b]pyrazin-2-one]"
11,< 6.00,"COc1ccc(-c2cnc3[nH]c(=O)n(Cc4ccccc4)c3n2)cc1C=O [Compound 22, 5-(3-Benzyl-2-oxo-2,3-dihydro-1H-imidazo[4,5-b]pyrazin-5-yl)-2-methoxybenzaldehyde]"
12,> 6.30,"COc1ccc(-c2cnc3[nH]c(=O)n(Cc4ccccc4)c3n2)cc1C(=O)O [Compound 23, 5-(3-Benzyl-2-oxo-2,3-dihydro-1H-imidazo[4,5-b]pyrazin-5-yl)-2-methoxybenzoic acid]"
13,< 6.00,"COc1ccc(-c2cnc3[nH]c(=O)n(Cc4ccccc4)c3n2)cc1CO [Compound 24, 1-Benzyl-6-(3-hydroxymethyl-4-methoxyphenyl)-1,3-dihydro-imidazo[4,5-b]pyrazin-2-one]"
14,6.00 to 6.30,"O=C(O)c1cc(-c2cnc3[nH]c(=O)n(Cc4ccccc4)c3n2)ccc1O [Compound 25, 5-(3-Benzyl-2-oxo-2,3-dihydro-1H-imidazo[4,5-b]pyrazin-5-yl)-2-hydroxybenzoic acid]"
15,6.00 to 6.30,"COc1cc(-c2cnc3[nH]c(=O)n(Cc4ccc(Cl)cc4)c3n2)cc(OC)c1OC [Compound 28, 1-(4-Chlorobenzyl)-6-(3,4,5-trimethoxyphenyl)-1,3-dihydro-imidazo[4,5-b]pyrazin-2-one]"
16,> 6.30,"COc1cc(-c2cnc3[nH]c(=O)n(Cc4cccc(Cl)c4)c3n2)cc(OC)c1OC [Compound 29, 1-(3-Chlorobenzyl)-6-(3,4,5-trimethoxyphenyl)-1,3-dihydro-imidazo[4,5-b]pyrazin-2-one]"
17,6.00 to 6.30,"COc1cccc(Cn2c(=O)[nH]c3ncc(-c4cc(OC)c(OC)c(OC)c4)nc32)c1 [Compound 32, 1-(3-Methoxybenzyl)-6-(3,4,5-trimethoxyphenyl)-1,3-dihydro-imidazo[4,5-b]pyrazin-2-one]"

# — patent publication US7608622B2, “Imidazo[4,5-b]pyrazinone inhibitors of protein kinases” (Janssen Pharmaceutica NV, priority 2004, dated 2009)
